In ChEMBL document CHEMBL3044736, “Synthesis, characterization, solvatochromic properties, and antimicrobial evaluation of 5-acetyl-2-thioxo-dihydro-pyrimidine-4,6-dione-based chalcones” (2013):
Values after ≈ are worked out from the molar mass of the structure shown.

Experiments:
Format in all cases: functional
[1] = tested on: Klebsiella pneumoniae; assay: Antimicrobial activity against Klebsiella pneumoniae MTCC 109 by agar cup diffusion method
[2] = tested on: Aspergillus clavatus; assay: Antimicrobial activity against Aspergillus clavatus MTCC 1323 assessed as diameter of growth inhibition zone at 50 ug/ml after 48-96 hr by agar cup diffusion method; conditions: read-out: DIZ
[3] = tested on: Escherichia coli; assay: Antimicrobial activity against Escherichia coli MTCC 443 by agar cup diffusion method
[4] = tested on: Staphylococcus aureus; assay: Antimicrobial activity against Staphylococcus aureus MTCC 96 assessed as diameter of growth inhibition zone at 50 ug/ml after 18-24 hr by agar cup diffusion method; conditions: read-out: DIZ
[5] = tested on: Streptococcus pyogenes; assay: Antimicrobial activity against Streptococcus pyogenes MTCC 442 assessed as diameter of growth inhibition zone at 250 ug/ml after 18-24 hr by agar cup diffusion method; conditions: read-out: DIZ
[6] = tested on: Staphylococcus aureus; assay: Antimicrobial activity against Staphylococcus aureus MTCC 96 assessed as diameter of growth inhibition zone at 25 ug/ml after 18-24 hr by agar cup diffusion method; conditions: read-out: DIZ
[7] = tested on: Escherichia coli; assay: Antimicrobial activity against Escherichia coli MTCC 443 assessed as diameter of growth inhibition zone at 100 ug/ml after 18-24 hr by agar cup diffusion method; conditions: read-out: DIZ
[8] = tested on: Penicillium; assay: Antimicrobial activity against Penicillium wild strain assessed as diameter of growth inhibition zone at 25 ug/ml after 48-96 hr by agar cup diffusion method; conditions: read-out: DIZ
[9] = tested on: Penicillium; assay: Antimicrobial activity against Penicillium wild strain assessed as diameter of growth inhibition zone at 50 ug/ml after 48-96 hr by agar cup diffusion method; conditions: read-out: DIZ
[10] = tested on: Penicillium; assay: Antimicrobial activity against Penicillium wild strain assessed as diameter of growth inhibition zone at 250 ug/ml after 48-96 hr by agar cup diffusion method; conditions: read-out: DIZ
[11] = tested on: Candida albicans; assay: Antimicrobial activity against Candida albicans MTCC 227 assessed as diameter of growth inhibition zone at 250 ug/ml after 48-96 hr by agar cup diffusion method; conditions: read-out: DIZ
[12] = tested on: Staphylococcus aureus; assay: Antimicrobial activity against Staphylococcus aureus MTCC 96 by agar cup diffusion method
[13] = tested on: Aspergillus clavatus; assay: Antimicrobial activity against Aspergillus clavatus MTCC 1323 assessed as diameter of growth inhibition zone at 25 ug/ml after 48-96 hr by agar cup diffusion method; conditions: read-out: DIZ
[14] = tested on: Candida albicans; assay: Antimicrobial activity against Candida albicans MTCC 227 assessed as diameter of growth inhibition zone at 25 ug/ml after 48-96 hr by agar cup diffusion method; conditions: read-out: DIZ
[15] = tested on: Trichophyton rubrum; assay: Antimicrobial activity against Trichophyton rubrum MTCC 296 by agar cup diffusion method
[16] = tested on: Klebsiella pneumoniae; assay: Antimicrobial activity against Klebsiella pneumoniae MTCC 109 assessed as diameter of growth inhibition zone at 250 ug/ml after 18-24 hr by agar cup diffusion method; conditions: read-out: DIZ
[17] = tested on: Pseudomonas aeruginosa; assay: Antimicrobial activity against Pseudomonas aeruginosa MTCC 1688 assessed as diameter of growth inhibition zone at 250 ug/ml after 18-24 hr by agar cup diffusion method; conditions: read-out: DIZ
[18] = tested on: Penicillium; assay: Antimicrobial activity against Penicillium wild strain by agar cup diffusion method
[19] = tested on: Staphylococcus aureus; assay: Antimicrobial activity against Staphylococcus aureus MTCC 96 assessed as diameter of growth inhibition zone at 250 ug/ml after 18-24 hr by agar cup diffusion method; conditions: read-out: DIZ
[20] = tested on: Candida albicans; assay: Antimicrobial activity against Candida albicans MTCC 227 assessed as diameter of growth inhibition zone at 100 ug/ml after 48-96 hr by agar cup diffusion method; conditions: read-out: DIZ
[21] = tested on: Streptococcus pyogenes; assay: Antimicrobial activity against Streptococcus pyogenes MTCC 442 assessed as diameter of growth inhibition zone at 25 ug/ml after 18-24 hr by agar cup diffusion method; conditions: read-out: DIZ
[22] = tested on: Pseudomonas aeruginosa; assay: Antimicrobial activity against Pseudomonas aeruginosa MTCC 1688 assessed as diameter of growth inhibition zone at 50 ug/ml after 18-24 hr by agar cup diffusion method; conditions: read-out: DIZ
[23] = tested on: Trichophyton rubrum; assay: Antimicrobial activity against Trichophyton rubrum MTCC 296 assessed as diameter of growth inhibition zone at 100 ug/ml after 48-96 hr by agar cup diffusion method; conditions: read-out: DIZ
[24] = tested on: Pseudomonas aeruginosa; assay: Antimicrobial activity against Pseudomonas aeruginosa MTCC 1688 assessed as diameter of growth inhibition zone at 100 ug/ml after 18-24 hr by agar cup diffusion method; conditions: read-out: DIZ
[25] = tested on: Aspergillus clavatus; assay: Antimicrobial activity against Aspergillus clavatus MTCC 1323 by agar cup diffusion method
[26] = tested on: Escherichia coli; assay: Antimicrobial activity against Escherichia coli MTCC 443 assessed as diameter of growth inhibition zone at 250 ug/ml after 18-24 hr by agar cup diffusion method; conditions: read-out: DIZ
[27] = tested on: Klebsiella pneumoniae; assay: Antimicrobial activity against Klebsiella pneumoniae MTCC 109 assessed as diameter of growth inhibition zone at 25 ug/ml after 18-24 hr by agar cup diffusion method; conditions: read-out: DIZ
[28] = tested on: Trichophyton rubrum; assay: Antimicrobial activity against Trichophyton rubrum MTCC 296 assessed as diameter of growth inhibition zone at 25 ug/ml after 48-96 hr by agar cup diffusion method; conditions: read-out: DIZ
[29] = tested on: Streptococcus pyogenes; assay: Antimicrobial activity against Streptococcus pyogenes MTCC 442 by agar cup diffusion method
[30] = tested on: Escherichia coli; assay: Antimicrobial activity against Escherichia coli MTCC 443 assessed as diameter of growth inhibition zone at 25 ug/ml after 18-24 hr by agar cup diffusion method; conditions: read-out: DIZ
[31] = tested on: Aspergillus clavatus; assay: Antimicrobial activity against Aspergillus clavatus MTCC 1323 assessed as diameter of growth inhibition zone at 250 ug/ml after 48-96 hr by agar cup diffusion method; conditions: read-out: DIZ
[32] = tested on: Streptococcus pyogenes; assay: Antimicrobial activity against Streptococcus pyogenes MTCC 442 assessed as diameter of growth inhibition zone at 100 ug/ml after 18-24 hr by agar cup diffusion method; conditions: read-out: DIZ
[33] = tested on: Pseudomonas aeruginosa; assay: Antimicrobial activity against Pseudomonas aeruginosa MTCC 1688 by agar cup diffusion method
[34] = tested on: Klebsiella pneumoniae; assay: Antimicrobial activity against Klebsiella pneumoniae MTCC 109 assessed as diameter of growth inhibition zone at 50 ug/ml after 18-24 hr by agar cup diffusion method; conditions: read-out: DIZ
[35] = tested on: Penicillium; assay: Antimicrobial activity against Penicillium wild strain assessed as diameter of growth inhibition zone at 100 ug/ml after 48-96 hr by agar cup diffusion method; conditions: read-out: DIZ
[36] = tested on: Staphylococcus aureus; assay: Antimicrobial activity against Staphylococcus aureus MTCC 96 assessed as diameter of growth inhibition zone at 100 ug/ml after 18-24 hr by agar cup diffusion method; conditions: read-out: DIZ
[37] = tested on: Trichophyton rubrum; assay: Antimicrobial activity against Trichophyton rubrum MTCC 296 assessed as diameter of growth inhibition zone at 250 ug/ml after 48-96 hr by agar cup diffusion method; conditions: read-out: DIZ
[38] = tested on: Aspergillus clavatus; assay: Antimicrobial activity against Aspergillus clavatus MTCC 1323 assessed as diameter of growth inhibition zone at 100 ug/ml after 48-96 hr by agar cup diffusion method; conditions: read-out: DIZ
[39] = tested on: Candida albicans; assay: Antimicrobial activity against Candida albicans MTCC 227 assessed as diameter of growth inhibition zone at 50 ug/ml after 48-96 hr by agar cup diffusion method; conditions: read-out: DIZ
[40] = tested on: Pseudomonas aeruginosa; assay: Antimicrobial activity against Pseudomonas aeruginosa MTCC 1688 assessed as diameter of growth inhibition zone at 25 ug/ml after 18-24 hr by agar cup diffusion method; conditions: read-out: DIZ
[41] = tested on: Candida albicans; assay: Antimicrobial activity against Candida albicans MTCC 227 by agar cup diffusion method
[42] = tested on: Trichophyton rubrum; assay: Antimicrobial activity against Trichophyton rubrum MTCC 296 assessed as diameter of growth inhibition zone at 50 ug/ml after 48-96 hr by agar cup diffusion method; conditions: read-out: DIZ
[43] = tested on: Escherichia coli; assay: Antimicrobial activity against Escherichia coli MTCC 443 assessed as diameter of growth inhibition zone at 50 ug/ml after 18-24 hr by agar cup diffusion method; conditions: read-out: DIZ
[44] = tested on: Klebsiella pneumoniae; assay: Antimicrobial activity against Klebsiella pneumoniae MTCC 109 assessed as diameter of growth inhibition zone at 100 ug/ml after 18-24 hr by agar cup diffusion method; conditions: read-out: DIZ
[45] = tested on: Streptococcus pyogenes; assay: Antimicrobial activity against Streptococcus pyogenes MTCC 442 assessed as diameter of growth inhibition zone at 50 ug/ml after 18-24 hr by agar cup diffusion method; conditions: read-out: DIZ

`O=C(/C=C/c1ccccc1)C1C(=O)NC(=S)NC1=O` was tested, and the MBC [1] was 250 µg/mL (≈ 911 µM), the MIC [1] was 200 µg/mL (≈ 729 µM) and the zone of inhibition at 50 µg/mL [2] was 19 mm. For the same compound, the MBC [3] was 500 µg/mL (≈ 1820 µM), the MIC [3] was 250 µg/mL (≈ 911 µM) and the zone of inhibition at 50 µg/mL [4] was 13 mm. It also gave a zone of inhibition at 250 µg/mL [5] of 17 mm, a zone of inhibition at 25 µg/mL [6] of 10 mm and a zone of inhibition at 100 µg/mL [7] of 15 mm. For the same compound, the zone of inhibition at 25 µg/mL [8] was 19 mm, the zone of inhibition at 50 µg/mL [9] was 21 mm and the zone of inhibition at 250 µg/mL [10] was 24 mm. It also gave a zone of inhibition at 250 µg/mL [11] of 22 mm, an MBC [12] of 250 µg/mL (≈ 911 µM) and an MIC [12] of 250 µg/mL (≈ 911 µM). For the same compound, the zone of inhibition at 25 µg/mL [13] was 18 mm, the zone of inhibition at 25 µg/mL [14] was 16 mm and the MFC [15] was 1000 µg/mL (≈ 3650 µM). For the same compound, the MIC [15] was 1000 µg/mL (≈ 3650 µM), the zone of inhibition at 250 µg/mL [16] was 17 mm and the zone of inhibition at 250 µg/mL [17] was 17 mm. For the same compound, the MFC [18] was greater than 1000 µg/mL, the MIC [18] was 1000 µg/mL (≈ 3650 µM) and the zone of inhibition at 250 µg/mL [19] was 17 mm. It also gave a zone of inhibition at 100 µg/mL [20] of 22 mm, a zone of inhibition at 25 µg/mL [21] of 12 mm and a zone of inhibition at 50 µg/mL [22] of 13 mm. It also gave a zone of inhibition at 100 µg/mL [23] of 24 mm, a zone of inhibition at 100 µg/mL [24] of 15 mm and an MFC [25] of 1000 µg/mL (≈ 3650 µM). For the same compound, the MIC [25] was 1000 µg/mL (≈ 3650 µM), the zone of inhibition at 250 µg/mL [26] was 17 mm and the zone of inhibition at 25 µg/mL [27] was 10 mm. It also gave a zone of inhibition at 25 µg/mL [28] of 20 mm, an MBC [29] of 500 µg/mL (≈ 1820 µM) and an MIC [29] of 250 µg/mL (≈ 911 µM). The zone of inhibition at 25 µg/mL [30] was 12 mm, the zone of inhibition at 250 µg/mL [31] was 24 mm and the zone of inhibition at 100 µg/mL [32] was 15 mm. For the same compound, the MBC [33] was 250 µg/mL (≈ 911 µM), the MIC [33] was 250 µg/mL (≈ 911 µM) and the zone of inhibition at 50 µg/mL [34] was 12 mm. The zone of inhibition at 100 µg/mL [35] was 22 mm, the zone of inhibition at 100 µg/mL [36] was 15 mm and the zone of inhibition at 250 µg/mL [37] was 25 mm. The zone of inhibition at 100 µg/mL [38] was 21 mm, the zone of inhibition at 50 µg/mL [39] was 18 mm and the zone of inhibition at 25 µg/mL [40] was 10 mm. The MFC [41] was 1000 µg/mL (≈ 3650 µM), the MIC [41] was 500 µg/mL (≈ 1820 µM) and the zone of inhibition at 50 µg/mL [42] was 24 mm. For the same compound, the zone of inhibition at 50 µg/mL [43] was 15 mm, the zone of inhibition at 100 µg/mL [44] was 14 mm and the zone of inhibition at 50 µg/mL [45] was 15 mm.
